Laboratory results taken from publication PMC12078333, “Pharmacokinetic evaluation and bioavailability of KPT-335 (Verdinexor) in cats” (Frontiers in Veterinary Science, 2025).
Where two headings read alike, the source gives them in different places.

Assays:
[1] = Adverse reaction assessment in test cats (body weight, behavior, coat gloss); type: in vivo; details: all tested cats, i.v. 1 mg/kg BW and p.o. 0.2–2 mg/kg BW, single dose
Procedure: In this study, a parallel trial design was employed, 42 adult domestic cats (21 males and 21 females), aged 1 to 2 years and weighing 2.5 ± 0.25 kg. Cats were grouped by random number, with half male and female in each group, and all cats were determined to be systemically healthy during an initial screening visit 1 week prior to the experiment. They were acclimatized to the laboratory environment for 7 days before the study commenced. During this period, they were kept in solitary cages with free access to water. Cats in the fasting group were deprived of food for 12 h prior to and 2 h following drug administration, while those in the feeding group were fed twice a day. Food and water sources were consistent throughout the trail. During and at the end of the experiment, we systematically assessed the adverse reactions by recording parameters such as body weight, behavior, and coat gloss in all test cats both before and after the trial. These observations were conducted to evaluate whether any adverse reactions occurred. All procedures were reviewed and approved by the Institutional Animal Care and Use Committee of China Agricultural University (11305-23-E-002).

pKa (unpublished data) = type: physicochemical; details: weak base
[2] = Solubility of KPT-335 (pH dependence, unpublished data); type: physicochemical
[3] = cat, in vivo
Procedure: Based on the dose administered in dogs, the selection of dosages for evaluating KPT-335 in cats was calculated using the Km factor, which adjusts drug doses across species based on body surface area (BSA) ([16]). […] For oral (p.o.) administration, single doses of 1 mg/kg BW and 2 mg/kg BW were tested across two groups. Additionally, an oral capsule group was administered at 0.2 mg/kg BW. […] The maximum safe dosage for dogs was determined to be 1.75 mg/kg BW, based on dosage conversion, the maximum safe dosage for cats was determined to be 2.33 mg/kg BW. Thus, we categorized the dosages as follows: 2 mg/kg BW was designated as the oral high-dose group, 1 mg/kg BW as the oral medium-dose group, and 0.2 mg/kg BW (1/10 of the recommended dose) as the oral low-dose group. These doses were determined based on the maximum safe dose in dogs and the solubility limitations of the drug. The smallest commercially available tablet contained 2.5 mg of KPT-335 and could not be divided, which meant that only whole tablets could be administered. Consequently, the 0.2 mg/kg BW dose could not be accurately achieved and was excluded from the tablet group trials. Only the 1 mg/kg BW and 2 mg/kg BW doses were included in the tablet groups. […]

[4] = cited from earlier work
[5] = dogs; cited from earlier work
[6] = dogs, orally 1.25 mg/kg BW (n = 4) ref 13
[7] = dogs, orally 1.5 mg/kg BW (n = 4) ref 13
[8] = healthy dogs, phase I study, 1.5 mg/kg BW ref 9

In the case of `O=C(/C=C\n1cnc(-c2cc(C(F)(F)F)cc(C(F)(F)F)c2)n1)NNc1ccccn1` [KPT-335], the adverse reactions [1] is reported as “no adverse reactions”, the pKa (pKa (unpublished data)) is reported as 10.6 and the aqueous solubility [2] is reported as “low aqueous solubility”. The “lower solubility at pH 3.8 versus pH 1.5” value ([2]; unpublished data) was 50 fold, the maximum safe dosage [3] was 2.33 mg/kg BW and the AUClast ([4]; dogs, 1.5 mg/kg BW ref 9, 13) was 1800–2,300 h·ng/mL. The Cmax ([4]; dogs, 1.5 mg/kg BW ref 9, 13) was 250 to 310 ng/mL, the half-life ([4]; dogs, 1.5 mg/kg BW ref 9, 13) was “approximately 4 h” and the “mean AUC” value [4, 6] was 1576.6 ng·h/mL. The “mean Cmax” value [4, 6] was 244.8 ng/mL, the “mean AUC” value [4, 7] was 2346.8 ng·h/mL and the “mean Cmax” value [4, 7] was 312 ng/mL. The AUClast [4, 8] was 1760 ± 223 ng·h/mL, the Cmax [4, 8] was 253 ± 88.3 ng/mL and the T1/2 [4, 8] was 3.88 ± 2.71 h. The maximum safe dosage [5] was 1.75 mg/kg BW.
